12 molecules from ChEMBL document CHEMBL4152194, “Synthesis, molecular modeling studies and evaluation of antifungal activity of a novel series of thiazole derivatives” (Eur J Med Chem, 2018) can be followed below.

≈ marks a conversion by molar mass, not a printed value. Some results are limits rather than exact numbers.

In one data set the test system is Candida albicans. Description: Antifungal activity against Candida albicans ATCC 18804 after 48 hrs by microbroth dilution assay. Type of data set: functional. The settings on record: ATCC 18804, 48 h.
In the next data set the test system is Pichia kudriavzevii. Description: Antifungal activity against Candida krusei ATCC 20298 after 48 hrs by microbroth dilution assay. Type of data set: functional. The settings on record: ATCC 20298, 48 h. Background: Broth dilution looks for growth in wells or tubes with falling amounts of substance.
The subject of the next data set is Candida parapsilosis. Description: Antifungal activity against Candida parapsilosis ATCC 22019 after 48 hrs by microbroth dilution assay. Type of data set: functional. The settings on record: Lodderomyces parapsilosis, ATCC 22019, 48 h.
Another data set concerns Candida tropicalis. Description: Antifungal activity against Candida tropicalis ATCC 750 after 48 hrs by microbroth dilution assay. The following applies: ATCC 750, 48 h. Type of data set: functional.
In data set [1] the test system is Cryptococcus bacillisporus. Description: Antifungal activity against Cryptococcus gattii ATCC 32608 after 72 hrs by microbroth dilution assay. The settings on record: ATCC 32608, 72 h. Type of data set: functional.
For another data set, the system named is Cryptococcus neoformans. Put plainly: Antifungal activity against Cryptococcus neoformans ATCC 24067 after 72 hrs by microbroth dilution assay. Type of data set: functional. The settings on record: ATCC 24067, 72 h.
The subject of data set [2] is Paracoccidioides brasiliensis. Description: Antifungal activity against Paracoccidioides brasiliensis Pb18 after 7 days by microbroth dilution assay. Type of data set: functional. The following applies: 168 h.
For another data set, the system named is HEK293. Description: Cytotoxicity against human HEK293 cells after 72 hrs by MTT assay. Type of data set: cell-based. The settings on record: HEK293, 72 h. For orientation: Formazan colour is commonly taken as a measure of viable cells.
A short description of data set [3]: Cytotoxicity against human HEK293 cells assessed as cell viability at 250 uM after 72 hrs by MTT assay relative to control. Type of data set: cell-based. The settings on record: read-out: Activity.

The MIC is the smallest concentration in the dilution series that meets the test's criterion for growth inhibition. A higher MIC goes with a less susceptible organism. As usually defined, the IC50 is the concentration needed to halve the response being measured. A low value points to greater potency in that assay.

As for `COc1cc(/C=C/C(C)=N/Nc2nc(-c3ccc(Cl)cc3)cs2)ccc1O`, the minimum inhibitory concentration (MIC) against Candida albicans was found to be 250 µM (≈ 100 µg/mL); against Pichia kudriavzevii, 250 µM (≈ 100 µg/mL); against Candida parapsilosis, 250 µM (≈ 100 µg/mL); against Candida tropicalis, 250 µM (≈ 100 µg/mL); in data set [1], 125 µM (≈ 50 µg/mL); against Cryptococcus neoformans it was 250 µM (≈ 100 µg/mL). In addition, the MIC in data set [2] was 62.5 µM (≈ 25 µg/mL).

With `CC(C)(C)/C=N/Nc1nc(-c2ccccc2)cs1`, the minimum inhibitory concentration (MIC) in the data set on Candida albicans is 3.9 µM (≈ 1.01 µg/mL); against Pichia kudriavzevii it was 5.8 µM (≈ 1.5 µg/mL); in the data set on Candida parapsilosis, 3.9 µM (≈ 1.01 µg/mL); in the data set with Candida tropicalis it was 31.2 µM (≈ 8.09 µg/mL); in [1], 1.9 µM (≈ 0.493 µg/mL); against Cryptococcus neoformans, 1.9 µM (≈ 0.493 µg/mL). Further, it took 125 µM (≈ 32.4 µg/mL) to inhibit growth in data set [2] (MIC).

For `Clc1ccc(-c2csc(N/N=C/C=C/c3ccccc3)n2)cc1`, the minimum inhibitory concentration (MIC) (with Candida albicans; against Pichia kudriavzevii; against Candida parapsilosis; with Candida tropicalis; in [1]; in the data set on Cryptococcus neoformans) was greater than 250 µM throughout. The same molecule came in with a minimum inhibitory concentration (MIC) in [2] greater than 250 µM.

Turning to `COc1cc(/C=C/C(C)=N/NC(N)=S)ccc1O`, the minimum inhibitory concentration (MIC) (in the data set with Candida albicans; in the data set with Pichia kudriavzevii; with Candida parapsilosis; in the data set on Candida tropicalis; in [1]; against Cryptococcus neoformans) was greater than 250 µM in each case. Moreover, the MIC in [2] is greater than 250 µM.

On to `C/C(=N\Nc1nc(-c2ccc(Cl)cc2)cs1)c1ccc(N)cc1`, for which the MIC (against Candida albicans; against Pichia kudriavzevii; with Candida parapsilosis; in the data set on Candida tropicalis; in data set [1]; in the data set with Cryptococcus neoformans) was greater than 250 µM in each case. In addition, in data set [2], the MIC is greater than 250 µM.

As for `COc1ccc(-c2csc(N/N=C(C)/C=C/c3ccc(O)c(OC)c3)n2)cc1`, the MIC (with Candida albicans; in the data set on Pichia kudriavzevii; against Candida parapsilosis; with Candida tropicalis; in [1]; against Cryptococcus neoformans) was 250 µM (≈ 98.9 µg/mL) in each case.

For the molecule `COc1cc(/C=C/C(C)=N/Nc2nc(-c3ccccc3)cs2)ccc1O`, the minimum inhibitory concentration (MIC) (against Candida albicans; against Pichia kudriavzevii; against Candida parapsilosis; with Candida tropicalis; in data set [1]; in the data set on Cryptococcus neoformans) was 250 µM (≈ 91.4 µg/mL) in each case. The same molecule came in with an MIC in [2] of 250 µM (≈ 91.4 µg/mL).

Take `CC(C)(C)/C=N/NC(N)=S`: the minimum inhibitory concentration (MIC) (in the data set with Candida albicans; with Pichia kudriavzevii; in the data set on Candida parapsilosis; with Candida tropicalis; in [1]; with Cryptococcus neoformans) was greater than 250 µM each time. In addition, the MIC in data set [2] is greater than 250 µM.

`CCC/C(CC)=N/NC(N)=S`: the minimum inhibitory concentration (MIC) (in the data set with Candida albicans; with Pichia kudriavzevii; in the data set on Candida parapsilosis; against Candida tropicalis; in data set [1]; with Cryptococcus neoformans) was greater than 250 µM in each case. In [2], this molecule returned an MIC greater than 250 µM.

Turning to `C[C@@H]1[C@H](O)[C@@H](C)/C=C/C=C/C=C/C=C/C=C/C=C/C=C/[C@H](O[C@@H]2O[C@H](C)[C@@H](O)[C@H](N)[C@@H]2O)C[C@@H]2O[C@](O)(C[C@@H](O)C[C@@H](O)[C@H](O)CC[C@@H](O)C[C@@H](O)CC(=O)O[C@H]1C)C[C@H](O)[C@H]2C(=O)O` [AMPHOTERICIN B], the MIC stood at 0.3 µM (≈ 0.277 µg/mL) in the data set with Candida albicans; 0.5 µM (≈ 0.462 µg/mL) against Pichia kudriavzevii; 0.5 µM (≈ 0.462 µg/mL) in the data set with Candida parapsilosis; 1.2 µM (≈ 1.11 µg/mL) against Candida tropicalis; 0.08 µM (≈ 0.0739 µg/mL) in data set [1]; 0.09 µM (≈ 0.0832 µg/mL) against Cryptococcus neoformans. In data set [2], the minimum inhibitory concentration (MIC) was determined as 0.06 µM (≈ 0.0554 µg/mL). In the data set on HEK293, this molecule registered a half-inhibitory concentration (IC50) of 78.6 µM.

On to `OC(Cn1cncn1)(Cn1cncn1)c1ccc(F)cc1F` [FLUCONAZOLE], for which the minimal inhibitory concentration (MIC) with Candida albicans stood at 1.6 µM (≈ 0.49 µg/mL); against Pichia kudriavzevii, 104 µM (≈ 32 µg/mL); with Candida parapsilosis it was 3.2 µM (≈ 0.98 µg/mL); against Candida tropicalis, 6.5 µM (≈ 1.99 µg/mL); in [1], 12.7 µM (≈ 3.89 µg/mL); in the data set with Cryptococcus neoformans, 6.2 µM (≈ 1.9 µg/mL). Also, the 50% inhibitory concentration (IC50) in the data set with HEK293 is greater than 250 µM. The viability at 72 h, 250 µM in data set [3] was 99.2%.

On to `CCC(C)n1ncn(-c2ccc(N3CCN(c4ccc(OCC5COC(Cn6cncn6)(c6ccc(Cl)cc6Cl)O5)cc4)CC3)cc2)c1=O` (configuration not stated) [ITRACONAZOLE], for which the MIC amounted to 0.7 µM (≈ 0.494 µg/mL) in the data set with Candida albicans; 0.18 µM (≈ 0.127 µg/mL) against Pichia kudriavzevii; 0.18 µM (≈ 0.127 µg/mL) with Candida parapsilosis; 0.09 µM (≈ 0.0635 µg/mL) in the data set with Candida tropicalis; 0.18 µM (≈ 0.127 µg/mL) in data set [1]; 0.04 µM (≈ 0.0282 µg/mL) with Cryptococcus neoformans. Further, in [2], inhibition of growth (MIC) required 0.06 µM (≈ 0.0423 µg/mL). The same molecule showed a concentration for half-maximal inhibition (IC50) in the data set with HEK293 greater than 250 µM. For the same molecule, the viability at 72 h, 250 µM in [3] was 90.8%.
